Test results: US9316633B2, “Methods for identifying inhibitors of solute transporters” (The Regents of the University of California, priority 2006, dated 2016)

Experiments:
UT-B [1] = biological target: T1, UT-B (Homo sapiens, UniProt Q13336); assay: Stopped-flow light scattering, urea permeability of human RBCs; assay type: cell-based; settings: for inhibition of urea transport, inhibitor added only to urea-containing solution (sidedness): 0.1 μM ureainh-101, 0.2 μM ureainh-302, external exposure at time of mixing; for reversibility of inhibition after washing RBCs: 10 min pre-incubation, then wash
T1 construct: the indicator cells are red blood cells that endogenously express the UT-B urea transporter; endogenous in cells; host or cells: human red blood cells (whole venous blood, single donor)
T1 sequence (Q13336 1-389): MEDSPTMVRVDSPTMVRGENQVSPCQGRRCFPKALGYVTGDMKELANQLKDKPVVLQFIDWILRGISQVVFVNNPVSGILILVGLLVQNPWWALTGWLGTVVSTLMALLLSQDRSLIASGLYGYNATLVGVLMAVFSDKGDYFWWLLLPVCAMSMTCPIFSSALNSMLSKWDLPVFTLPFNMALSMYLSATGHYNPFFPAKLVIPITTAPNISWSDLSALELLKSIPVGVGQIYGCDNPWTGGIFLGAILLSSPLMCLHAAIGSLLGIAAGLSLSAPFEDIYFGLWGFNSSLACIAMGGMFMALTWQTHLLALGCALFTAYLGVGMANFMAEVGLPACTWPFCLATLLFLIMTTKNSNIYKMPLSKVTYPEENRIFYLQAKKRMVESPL
Protocol: RBC urea and water permeabilities were assayed by stopped-flow light scattering using a Hi-Tech Sf-51 instrument (Wiltshire, UK). […] After an initial osmotic shrinking phase, the kinetics of increasing cell volume caused by urea influx were measured as the time-course of 90° scattered light intensity at 530 nm, with increasing cell volume resulting in reduced scattered light intensity. As a positive control, 0.7 mM phloretin was added to the RBC suspension prior to stopped-flow experiments. Measurements of water permeability were carried out similarly, with sucrose (cell-impermeant) used instead of urea to establish a 250-mM osmotic gradient. As a positive control, HgCl2 (0.3 mM) was added to the RBC suspension prior to stopped-flow measurements. Osmotic water permeability coefficients (Pf) were computed from light scattering data as described (van Hoek et al., J. Biol. Chem. 267:18267-69 (1992)).
After repeating the 96-well plate RBC lysis assay to confirm compound activity (see Example 2), bona fide urea transport inhibition was determined by stopped-flow light scattering from the kinetics of urea influx (RBC swelling) in response to an inwardly directed urea gradient. Rapid mixing of an RBC suspension with a hyperosmolar solution containing excess 250 mM urea produced rapid cell shrinking due to osmotic water efflux, followed by cell swelling as urea (and water) influx occurred.
To determine EC50 values for urea transport inhibition directly, RBC urea transport was measured by stopped-flow light scattering using a non-saturating concentration of extracellular urea (to avoid possible competition effects). EC50 for inhibition of RBC urea transport was determined independently by comparing stopped-flow light scattering curves to a model of cell shrinking-swelling.
For stopped-flow experiments, a 100-mM gradient of urea (for human RBCs) or N-methylurea (for mouse RBCs) was used to minimize competition effects (apparent urea and N-methylurea affinities at 23° C. are approximately 200 and approximately 100 mM, respectively) (Mayrand et al., J. Gen. Physiol. 81:221-37 (1983)). N-methylurea, with greater than 2-fold slower RBC permeability than urea, was used in mouse studies to better resolve overlapping water and urea transport kinetics. Dose-response data were also collected for human RBCs using a high concentration of 1 M urea to distinguish between competitive vs. non-competitive inhibitor binding.
The two coupled differential equations describing water efflux and solute influx in response to externally added urea or methylurea were numerically integrated using the forward Euler method (Δt=0.01 s) to reproduce the biphasic changes in cell volume observed experimentally. Computations that were performed using the smaller time step (Δt=0.001 s) gave similar results, confirming the adequacy of the 0.01 s time step. Water flux, Jv (in cm^3/s), across erythrocyte membranes is represented by the following equation: Jv=−Pf·S·vw·[(Ie−Ic(i))+(Ue−Uc(i))]; solute flux, Js (in mol/s), is represented by the following equation: Ps·S·(Ue−Uc(i). Permeability coefficients (Pf and Ps) are expressed in units of cm/s, cell surface area (S) in cm^2, extracellular (e) and cellular (c) concentrations of impermeant (I) and urea/methylurea (U) solute in mol/cm^3, and vw is […]. Initial conditions were Ie=Ic(0)=2.9×10^−4 mol/cm^3, Ue=10^−4 mol/cm^3, and Uc(0)=0. For each time step, a new cell volume (normalized to the initial size; V(i+1)/V(0)) and a new cell permeant concentration (U(i+1)) were calculated from V(i+1)/V(0)=V(i)/V(0)−Δt·Pf·(S/V(0))·vw·[Ie(1−V(i)/V(0))+(Ue−Uc(i))] and Uc(i+1)=Uc(i)/V(0)−Δt·Us·(S/V(0))·vw·(Ue−Uc(i)). Normalized cell volume was assumed to be inversely proportional to scattered light intensity. The product of Pf and the surface area-to-volume ratio (S/V(0)) was determined to be 3.4×10^2 s^−1 and 8.5×10^2 s^−1 for human and mouse erythrocytes, respectively, from water permeability measurements. […]

urea transporter (UT) = settings: 23° C., RBC urea transport; cited from earlier work
[2] = biological target: T2, UT-B-facilitated water transport (Mus musculus, UniProt Q8VHL0); assay: Osmotic water permeability by stopped-flow light scattering, RBCs from AQP1-null mice; assay type: cell-based
T2 construct: endogenous in cells; host or cells: mouse red blood cells (AQP1-null and wild-type mice, CD1 background)
T2 sequence (Q8VHL0 1-384): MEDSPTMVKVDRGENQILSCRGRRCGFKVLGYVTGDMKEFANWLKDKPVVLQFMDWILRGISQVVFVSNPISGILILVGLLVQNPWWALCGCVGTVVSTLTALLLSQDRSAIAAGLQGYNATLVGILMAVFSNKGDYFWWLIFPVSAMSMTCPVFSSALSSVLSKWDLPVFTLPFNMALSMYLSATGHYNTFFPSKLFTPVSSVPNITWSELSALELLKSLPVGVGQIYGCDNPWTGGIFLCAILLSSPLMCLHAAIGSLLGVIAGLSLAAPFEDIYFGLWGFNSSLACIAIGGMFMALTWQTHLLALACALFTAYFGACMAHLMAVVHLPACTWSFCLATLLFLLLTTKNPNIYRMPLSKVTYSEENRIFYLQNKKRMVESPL
Protocol: RBC urea and water permeabilities were assayed by stopped-flow light scattering using a Hi-Tech Sf-51 instrument (Wiltshire, UK). For measurement of urea permeability, dilutions of whole blood (human or mouse; see Example 1) in PBS (hematocrit: approximately 0.5%) were incubated with test compounds for 5 min and then subjected to a 250-mM inwardly directed gradient of urea. After an initial osmotic shrinking phase, the kinetics of increasing cell volume caused by urea influx were measured as the time-course of 90° scattered light intensity at 530 nm, with increasing cell volume resulting in reduced scattered light intensity. As a positive control, 0.7 mM phloretin was added to the RBC suspension prior to stopped-flow experiments. Measurements of water permeability were carried out similarly, with sucrose (cell-impermeant) used instead of urea to establish a 250-mM osmotic gradient. As a positive control, HgCl2 (0.3 mM) was added to the RBC suspension prior to stopped-flow measurements. […]
This example describes chemical knock-out of UT-B by UT-B inhibitors in RBCs and the effect on UT-B-facilitated water transport. […] Osmotic water permeability was measured by stopped-flow light scattering in RBCs from wild-type and AQP1-null mice as shown in FIG. 8A. […]

RBCs from wild-type mice = assay: Osmotic water permeability by stopped-flow light scattering, RBCs from wild-type mice; assay type: cell-based, mouse
Protocol: RBC urea and water permeabilities were assayed by stopped-flow light scattering using a Hi-Tech Sf-51 instrument (Wiltshire, UK). For measurement of urea permeability, dilutions of whole blood (human or mouse; see Example 1) in PBS (hematocrit: approximately 0.5%) were incubated with test compounds for 5 min and then subjected to a 250-mM inwardly directed gradient of urea. After an initial osmotic shrinking phase, the kinetics of increasing cell volume caused by urea influx were measured as the time-course of 90° scattered light intensity at 530 nm, with increasing cell volume resulting in reduced scattered light intensity. As a positive control, 0.7 mM phloretin was added to the RBC suspension prior to stopped-flow experiments. Measurements of water permeability were carried out similarly, with sucrose (cell-impermeant) used instead of urea to establish a 250-mM osmotic gradient. As a positive control, HgCl2 (0.3 mM) was added to the RBC suspension prior to stopped-flow measurements. Osmotic water permeability coefficients (Pf) were computed from light scattering data as described (van Hoek et al., J. Biol. Chem. 267:18267-69 (1992)).
This example describes chemical knock-out of UT-B by UT-B inhibitors in RBCs and the effect on UT-B-facilitated water transport. […] Osmotic water permeability was measured by stopped-flow light scattering in RBCs from wild-type and AQP1-null mice as shown in FIG. 8A. […] AQP1-null RBCs had greater than 5-fold reduced Pf compared to wild-type RBCs.

UT-B [3] = biological target: T1, UT-B; assay: RBC lysis assay, human RBCs loaded with acetamide; assay type: cell-based; settings: UT-B inhibitory potency

| EC50 (UT-B [3]; Table 7, aminobenzimidazoles) [nM] | SMILES | other results |
| --- | --- | --- |
|  | CC(N)=O [Acetamide, reference compound] | share of transport in RBCs that is UT-B-dependent (UT-B [1]; stopped-flow light scattering): greater than 95% |
|  | CNC(N)=O [N-methylurea] | apparent affinity (urea transporter (UT)): approximately 100 mM |
|  | NC(N)=O [urea] | apparent affinity (urea transporter (UT)): approximately 200 mM |
|  | NC(=O)CSc1oc(-c2ccccc2)nc1S(=O)(=O)c1ccc(Br)cc1 [ureainh-101, 2-(4-(4-bromophenylsulfonyl)-2-phenyloxazol-5-ylthio)acetamide] | inhibition of urea transport, inhibitor added only to urea-containing solution (sidedness) (UT-B [1]): did not inhibit urea transport; reversibility of inhibition after washing RBCs (UT-B [1]): fully reversible inhibition; effect on water permeability [2]: further inhibited; effect on water transport (RBCs from wild-type mice): little effect |
|  | Cc1ccc(Nc2nnc(-c3ccc(C(N)=O)cc3)c3ccccc23)cc1 [ureainh-302, 4-(4-(p-tolylamino)phthalazin-1-yl)benzamide] | EC50 (UT-B [3]; Table 5, phthalazinamines): 200 nM; inhibition of urea transport, inhibitor added only to urea-containing solution (sidedness) (UT-B [1]): sizable effect; inhibition at 0.4 µM (UT-B [1]; 0.1 μM ureainh-101, 0.4 μM ureainh-302, read-out: transport inhibition after 10 min pre-incubation): > 95%; reversibility of inhibition after washing RBCs (UT-B [1]): fully reversible inhibition; effect on water permeability [2]: further inhibited; effect on water transport (RBCs from wild-type mice): little effect |
| 5000 | CC(C)n1c(NCc2cc(Cl)ccc2O)nc2ccccc21 [ureainh-403, 4-chloro-2-((1-isopropyl-1H-benzo[d]imidazol-2-ylamino)methyl)phenol] |  |
| 400 | CC(C)n1c(NCc2cc(Br)ccc2O)nc2ccccc21 [ureainh-405, 4-bromo-2-((1-isopropyl-1H-benzo[d]imidazol-2-ylamino)methyl)phenol] |  |
| 1000 | C=CCn1c(NCc2cc(Br)ccc2O)nc2ccccc21 [ureainh-406, 2-((1-allyl-1H-benzo[d]imidazol-2-ylamino)methyl)-4-bromophenol] |  |
| 800 | CCN(CC)CCn1c(NCc2ccccc2O)nc2ccccc21 [ureainh-407, 2-((1-(2-(diethylamino)ethyl)-1H-benzo[d]imidazol-2-ylamino)methyl)phenol] |  |
| 900 | Oc1ccccc1CNc1nc2ccccc2n1CCN1CCCCC1 [ureainh-408, 2-((1-(2-(piperidin-1-yl)ethyl)-1H-benzo[d]imidazol-2-ylamino)methyl)phenol] |  |
| 6000 | Oc1ccccc1CNc1nc2ccccc2n1CCN1CCOCC1 [ureainh-412, 2-((1-(2-morpholinoethyl)-1H-benzo[d]imidazol-2-ylamino)methyl)phenol] |  |
| 1000 | CCCn1c(NCc2cc(C)ccc2O)nc2ccccc21 [ureainh-414, 4-methyl-2-((1-propyl-1H-benzo[d]imidazol-2-ylamino)methyl)phenol] |  |
| 1000 | Cc1ccc(O)c(CNc2nc3ccccc3n2C(C)C)c1 [ureainh-415, 2-((1-isopropyl-1H-benzo[d]imidazol-2-ylamino)methyl)-4-methylphenol] |  |
| 1000 | CCn1c(NCc2cc(C)ccc2O)nc2ccccc21 [ureainh-416, 2-((1-ethyl-1H-benzo[d]imidazol-2-ylamino)methyl)-4-methylphenol] |  |
| 2000 | CCCCn1c(NCc2cc(C)ccc2O)nc2ccccc21 [ureainh-417, 2-((1-butyl-1H-benzo[d]imidazol-2-ylamino)methyl)-4-methylphenol] |  |
| 6000 | CCCn1c(NCc2cc(OC)ccc2O)nc2ccccc21 [ureainh-418, 4-methoxy-2-((1-propyl-1H-benzo[d]imidazol-2-ylamino)methyl)phenol] |  |
| 25000 | C=CCn1c(NCc2cc(OC)ccc2O)nc2ccccc21 [ureainh-419, 2-((1-allyl-1H-benzo[d]imidazol-2-ylamino)methyl)-4-methoxyphenol] |  |
| 3000 | COc1ccc(O)c(CNc2nc3ccccc3n2C(C)C)c1 [ureainh-420, 2-((1-isopropyl-1H-benzo[d]imidazol-2-ylamino)methyl)-4-methoxyphenol] |  |
| 3000 | CCn1c(NCc2c(O)ccc3ccccc23)nc2ccccc21 [ureainh-421, 1-((1-ethyl-1H-benzo[d]imidazol-2-ylamino)methyl)naphthalen-2-ol] |  |
| 11000 | CCn1c(NCc2cccc(OC)c2O)nc2ccccc21 [ureainh-422, 2-((1-ethyl-1H-benzo[d]imidazol-2-ylamino)methyl)-6-methoxyphenol] |  |
| 5000 | CCn1c(NC(C)c2cc(Cl)ccc2O)nc2ccccc21 (centres unmarked) [ureainh-423, 4-chloro-2-(1-(1-ethyl-1H-benzo[d]imidazol-2-ylamino)ethyl)phenol] |  |
